According to patent US20240207415A1, “BI-FUNCTIONAL COMPOUNDS AND METHODS FOR TARGETED UBIQUITINATION OF ANDROGEN RECEPTOR” (MONTELINO THERAPEUTICS, INC., priority 2022, published 2024):
pIC50: −log10 of the molar value.

Each molecule was assayed on 22Rv1-Enz^R (assay: 22Rv1-Enz^R cell proliferation assay). Details: human prostate cancer cell line 22Rv1-Enz^R; 6-day culture, cell media changed every 24 hours; half maximal growth inhibition constant; read-out: 22Rv1-Enz^R proliferation assay GIC50.
Assay type: cell-based
Method: The human prostate cancer cell line, 22Rv1 has been reported to express a high level of AR-V7. According to one procedure, 22Rv1 is seeded at 50,000 cells/well on a 24-well plate in quadruplicate and treated with test compounds in concentrations ranging up to 20 μM for four days. Standard culture media is RPMI-1640 supplemented with 10% fetal bovine serum. The test compound initially is dissolved in DMSO at 50 mM. This stock solution is then diluted as needed for the indicated concentrations. At the end of the four-day period, cells are harvested using 1% trypsin and counted using an automated cell counter.
Selected compounds may be tested in the human prostate cancer cell line, 22Rv1-Enz^R as described in Geun Taek Lee et al., Molecular Cancer Therapeutics, 20:490-9 (2021). These procedures are similar to that described in Experimental Example 1, above, except that the assay conditions are a 6-day culture with cell media changed every 24 hours.
In the following Table (half maximal growth inhibition constant, GIC50): (*)-GIC50 2-10 μM; (++)-GIC50 1.0-2.0 μM; (+++)-GIC50<1.0 μM.
`O=C(CCCCCCCCOc1c(-c2csc(N3CCOCC3)n2)ccc(F)c1F)NCCOCCOCC(=O)Nc1ccc(C2CCC(=O)NC2=O)cc1` (stereo not drawn) [Example 14, 9-(2,3-difluoro-6-(2-morpholinothiazol-4-yl)phenoxy)-N-(2-(2-(2-((4-(2,6-dioxopiperidin-3-yl)phenyl)amino)-2-oxoethoxy)ethoxy)ethyl)nonanamide] was tested, and the pIC50 was 5.70 to 6.00.
`O=C1CCC(c2ccc(NC(=O)CCCCCCCCOc3c(-c4csc(N5CCOCC5)n4)ccc(F)c3F)cc2)C(=O)N1` (stereo not drawn) [Example 12, 9-(2,3-difluoro-6-(2-morpholinothiazol-4-yl)phenoxy)-N-(4-(2,6-dioxopiperidin-3-yl)phenyl)nonanamide] showed a pIC50 of 5.00 to 5.70.
Molecule `O=C(CCCCCCCCOc1ccc(-c2csc(N3CCOCC3)n2)cc1)NCCCCC(=O)Nc1ccc(C2CCC(=O)NC2=O)cc1` (stereo not drawn) [Example 7, N-(5-((4-(2,6-Dioxopiperidin-3-yl)phenyl)amino)-5-oxopentyl)-9-(4-(2morpholinothiazol-4-yl)phenoxy)nonanamide] has a pIC50 of 5.70 to 6.00.
With `O=C1CCC(c2ccc(OCCOCCOCCOCCn3cc(CCOc4c(-c5csc(N6CCOCC6)n5)ccc(F)c4F)nn3)cc2)C(=O)N1` (stereo not drawn) [Example 11, 3-(4-(2-(2-(2-(2-(4-(2-(2,3-difluoro-6-(2-morpholinothiazol-4-yl)phenoxy)ethyl)-1H-1,2,3-triazol-1-yl)ethoxy)ethoxy)ethoxy)ethoxy)phenyl)piperidine-2,6-dione] the pIC50 was 5.70 to 6.00.
`O=C1CCC(c2ccc(OCC(=O)N3CCN(CCOCCOc4c(-c5csc(N6CCOCC6)n5)ccc(F)c4F)CC3)cc2)C(=O)N1` (stereo not drawn) [Example 2, 3-(4-(2-(4-(2-(2-(2,3-Difluoro-6-(2-morpholinothiazol-4-yl)phenoxy)ethoxy)ethyl)piperazin-1-yl)-2-oxoethoxy)phenyl)piperidine-2,6-dione] gave a pIC50 of 5.70 to 6.00.
Molecule `O=C1CCC(c2ccc(OCCOCCOCCn3cc(CCOc4c(-c5csc(N6CCOCC6)n5)ccc(F)c4F)nn3)cc2)C(=O)N1` (stereo not drawn) [Example 10, 3-(4-(2-(2-(2-(4-(2-(2,3-difluoro-6-(2-morpholinothiazol-4-yl)phenoxy)ethyl)-1H-1,2,3-triazol-1-yl)ethoxy)ethoxy)ethoxy)phenyl)piperidine-2,6-dione] has a pIC50 of 5.00 to 5.70.
`O=C(COc1ccc(C2CCC(=O)NC2=O)cc1)NCCOCCOCCOCCOc1c(-c2csc(N3CCOCC3)n2)ccc(F)c1F` (stereo not drawn) [Example 3, N-(2-(2-(2-(2-(2,3-Difluoro-6-(2-morpholinothiazol-4-yl)phenoxy)ethoxy)ethoxy)ethoxy)ethyl)-2-(4-(2,6-dioxopiperidin-3-yl)phenoxy)acetamide] showed a pIC50 of 5.00 to 5.70.
With `O=C(CCCCCCCCOc1c(-c2csc(N3CCOCC3)n2)ccc(F)c1F)NCCCCCCC(=O)Nc1ccc(C2CCC(=O)NC2=O)cc1` (stereo not drawn) [Example 13, 9-(2,3-difluoro-6-(2-morpholinothiazol-4-yl)phenoxy)-N-(7-((4-(2,6-dioxopiperidin-3-yl)phenyl)amino)-7-oxoheptyl)nonanamide] the pIC50 was 5.70 to 6.00.
For `O=C(COc1ccc(C2CCC(=O)NC2=O)cc1)NCCCCCCCCNC(=O)COc1c(-c2csc(N3CCOCC3)n2)ccc(F)c1F` (stereo not drawn) [Example 1, 2-(2,3-Difluoro-6-(2-morpholinothiazol-4-yl)phenoxy)-N-(8-(2-(4-(2,6-dioxopiperidin-3-yl)phenoxy)acetamido)octyl)acetamide], the pIC50 was > 6.00.
`O=C(CCCCCCCCOc1cccc(-c2csc(N3CCOCC3)n2)c1)NCCCCC(=O)Nc1ccc(C2CCC(=O)NC2=O)cc1` (stereo not drawn) [Example 6, N-(5-((4-(2,6-dioxopiperidin-3-yl)phenyl)amino)-5-oxopentyl)-9-(3-(2morpholinothiazol-4-yl)phenoxy)nonanamide] showed a pIC50 of 5.00 to 5.70.
`O=C(CCCCCCCCOc1c(-c2csc(N3CCOCC3)n2)ccc(F)c1F)NCCCCC(=O)Nc1ccc(C2CCC(=O)NC2=O)cc1` (stereo not drawn) [Example 4, 9-(2,3-difluoro-6-(2-morpholinothiazol-4-yl)phenoxy)-N-(5-((4-(2,6-dioxopiperidin-3-yl)phenyl)amino)-5-oxopentyl)nonanamide] was tested, and the pIC50 was > 6.00.
For `O=C(CCCCCCCCOc1c(-c2csc(N3CCOCC3)n2)ccc(F)c1F)NCCCCNC(=O)c1ccc(N2CCC(=O)NC2=O)cc1` [Example 15, N-(4-(9-(2,3-difluoro-6-(2-morpholinothiazol-4-yl)phenoxy)nonanamido)butyl)-4-(2,4-dioxotetrahydropyrimidin-1(2H)-yl)benzamide], the pIC50 was 5.00 to 5.70.
